# Experimental data from patent publication US10662195B2, “Protein kinase conjugates and inhibitors” (Celgene Avilomics Research, Inc., priority 2009, dated 2020).
# Where two headings read alike, the source gives them in different places.
# Key:
# [1] = biological target: T1, FLT3 (Homo sapiens, UniProt P36888); test: FLT-3 Omnia continuous-read kinase assay; assay type: biochemical
# T1 construct: purchased PV3182
# T1 sequence (P36888 27-993): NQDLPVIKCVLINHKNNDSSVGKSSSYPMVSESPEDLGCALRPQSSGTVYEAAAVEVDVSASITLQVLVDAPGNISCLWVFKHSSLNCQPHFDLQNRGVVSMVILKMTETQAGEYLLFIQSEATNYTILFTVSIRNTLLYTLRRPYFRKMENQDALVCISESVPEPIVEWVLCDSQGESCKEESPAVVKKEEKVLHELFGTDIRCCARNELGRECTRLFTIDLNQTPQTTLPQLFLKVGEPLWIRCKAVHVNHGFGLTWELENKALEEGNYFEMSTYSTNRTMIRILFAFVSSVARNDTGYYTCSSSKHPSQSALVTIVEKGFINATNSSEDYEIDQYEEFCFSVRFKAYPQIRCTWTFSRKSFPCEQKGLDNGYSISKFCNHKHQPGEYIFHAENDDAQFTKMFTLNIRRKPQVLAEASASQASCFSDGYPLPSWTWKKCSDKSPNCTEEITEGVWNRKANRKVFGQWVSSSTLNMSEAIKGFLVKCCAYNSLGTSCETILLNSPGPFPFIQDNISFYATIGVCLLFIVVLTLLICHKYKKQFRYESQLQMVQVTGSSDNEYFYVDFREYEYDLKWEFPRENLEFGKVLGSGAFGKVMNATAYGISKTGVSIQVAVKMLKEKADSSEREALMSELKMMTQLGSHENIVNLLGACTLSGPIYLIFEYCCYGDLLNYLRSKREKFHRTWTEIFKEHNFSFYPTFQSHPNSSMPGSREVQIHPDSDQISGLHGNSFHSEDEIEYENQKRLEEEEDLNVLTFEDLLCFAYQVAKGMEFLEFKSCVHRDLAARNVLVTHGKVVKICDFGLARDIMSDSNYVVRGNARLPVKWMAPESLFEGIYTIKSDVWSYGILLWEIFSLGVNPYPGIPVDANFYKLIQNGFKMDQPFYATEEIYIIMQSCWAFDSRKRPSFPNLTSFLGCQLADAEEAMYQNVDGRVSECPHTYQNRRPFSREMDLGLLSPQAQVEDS
# Experimental: (§1) A. KDR and FLT-3 Omnia Assay for Potency Assessment:
# (§2) The protocol below describes a continuous-read kinase assay to measure inherent potency of Avila Therapeutics' compounds against active KDR and FLT-3 enzymes. The assay was performed substantially as described by the vendor (Invitrogen, Carlsbad, Calif.; http://www.invitrogen.com/content.cfm?pageid=11338.)
# (§3) Briefly, 10× stocks of KDR from Invitrogen or BPS Bioscience (PV3660 or 40301) and FLT-3 (PV3182) enzymes, 1.13×ATP (AS001A) and Y9-Sox or Y12-Sox peptide substrates (KCZ1001) were prepared in 1× kinase reaction buffer consisting of 20 mM Tris, pH 7.5, 5 mM MgCl2, 1 mM EGTA, 5 mM β-glycerophosphate, 5% glycerol (10× stock, KB002A) and 0.2 mM DTT (DS001A). 5 μL of enzyme were pre-incubated in a Corning (#3574) 384-well, white, non-binding surface microtiter plate (Corning, N.Y.) for 30 min at 27° C. with a 0.5 μL volume of 50% DMSO and serially diluted compounds prepared in 50% DMSO. Kinase reactions were started with the addition of 45 μL of the ATP/Y9 or Y5-Sox peptide substrate mix and monitored every 30-90 seconds for 60 minutes at λex360/λem485 in a Synergy^4 plate reader from BioTek (Winooski, Vt.). At the conclusion of each assay, progress curves from each well were examined for linear reaction kinetics and fit statistics (R^2, 95% confidence interval, absolute sum of squares). Initial velocity (0 minutes to 20+ minutes) from each reaction was determined from the slope of a plot of relative fluorescence units vs time (minutes) and then plotted against inhibitor concentration to estimate IC50 from Log [Inhibitor] vs Response, Variable Slope model in GraphPad Prism from GraphPad Software (San Diego, Calif.).
# [FLT-3]=15 nM, [ATP]=500 μM and [Y5-Sox peptide]=10 μM (ATP KMapp=470 μM)
# (§4) The reported IC50_APP and IC50 values are in units of nM.
# [2] = biological target: T2, PDGFRA (Homo sapiens, UniProt P16234); test: Assay for PDGFRa (Omnia); assay type: biochemical
# T2 construct: purchased PV3811
# Experimental: Briefly, 10× stock of PDGFRα (PV3811) enzyme, 1.13×ATP (AS001A) and Y12-Sox peptide substrates (KCZ1001) was prepared in 1× kinase reaction buffer consisting of 20 mM Tris, pH 7.5, 5 mM MgCl2, 1 mM EGTA, 5 mM β-glycerophosphate, 5% glycerol (10× stock, KB002A) and 0.2 mM DTT (DS001A). 5 μL of enzyme were pre-incubated in a Corning (#3574) 384-well, white, non-binding surface microtiter plate (Corning, N.Y.) for 30 min at 27° C. with a 0.5 μL volume of 50% DMSO and serially diluted compounds prepared in 50% DMSO. Kinase reactions were started with the addition of 45 μL of the ATP/Y9 or Y12-Sox peptide substrate mix and monitored every […] for 60 minutes at λex360/λem485 in a Synergy^4 plate reader from BioTek (Winooski, Vt.). At the conclusion of each assay, progress curves from each well were examined for linear reaction kinetics and fit statistics (R2, 95% confidence interval, absolute sum of squares). Initial velocity (0 minutes to 20+ minutes) from each reaction was determined from the slope of a plot of relative fluorescence units vs time (minutes) and then plotted against inhibitor concentration to estimate IC50 from log [Inhibitor] vs Response, Variable Slope model in GraphPad Prism from GraphPad Software (San Diego, Calif.).
# [PDGFRα]=2-5 nM, [ATP]=60 μM and [Y9-Sox peptide]=10 μM (ATP KMapp=61 μM)
# as §4
# [3] = biological target: KDR (Homo sapiens, UniProt P35968); test: KDR Omnia continuous-read kinase assay; assay type: biochemical; set-up: purchased Invitrogen or BPS Bioscience PV3660 or 40301
# Experimental: as §1, §2
# as §3, with “Calif.). […]” for “Calif.).”
# as §4
# [4] = biological target: CKIT (Homo sapiens, UniProt P10721); test: c-Kit Omnia kinase assay; assay type: biochemical; details: reversible reference compounds; read-out: IC50 CKIT
# [5] = biological target: CKIT D816V (Homo sapiens, UniProt P10721, D816V); test: c-Kit mutant Omnia kinase assay; assay type: biochemical; details: read-out: IC50_APP CKIT D816V
# [6] = system: CKIT; test: cKIT washout assay in GIST882 cells (C-kit phosphorylation, western blot); assay type: cell-based; details: 1 uM for 90 minutes, then washed free of compound
# Experimental: GIST882 cells (See, Bauer et al., Cancer Research, 66(18):9153-9161 (2006)) were seeded in a 6 well plate at a density of 8×10^5 cells/well in complete media. The next day cells were treated with 1 uM compound diluted in complete media for 90 minutes. After 90 minutes, the media was removed and cells were washed with compound-free media. Cells were washed every 2 hours and resuspended in fresh compound-free media. Cells were collected at specified time points, lysed in Cell Extraction Buffer (Invitrogen FNN0011) supplemented with Roche complete protease inhibitor tablets (Roche 11697498001) and phosphatase inhibitors (Roche 04 906 837 001) and lysates were sheared by passing through a 28.5 gauge syringe 10 times each. Protein concentrations were measured and 10 ug total protein lysate was loaded in each lane. C-kit phosphorylation was assayed by western blot with pTyr (4G10) antibody and total kit antibody from Cell Signaling Technology.
# Sorafenib and XVIII-11 were tested for cellular activity in a GIST882 cell line at 1 micromolar. The results are depicted in FIGS. 2a and 2b where it is shown that XVIII-11 maintained c-KIT enzyme inhibition in […] cells after “washout” for at least 8 hours. […] In order to understand whether there was a prolonged inhibition with the irreversible inhibitor the cells were washed free of compound. For the reversible inhibitor, Sorafenib, the inhibitory activity of cKIT and downstream signaling was overcome whereas the irreversible inhibition of XVIII-11 persisted for at least 8 hours.
# [7] = 30 min pre-incubation, [ATP]=500 μM, read-out: IC50_APP FLT3
# [8] = 30 min pre-incubation, read-out: IC50_APP KDR
# [9] = 30 min pre-incubation, [ATP]=60 μM, read-out: IC50_APP PDGFRA
# T2 sequence (P16234 24-1089): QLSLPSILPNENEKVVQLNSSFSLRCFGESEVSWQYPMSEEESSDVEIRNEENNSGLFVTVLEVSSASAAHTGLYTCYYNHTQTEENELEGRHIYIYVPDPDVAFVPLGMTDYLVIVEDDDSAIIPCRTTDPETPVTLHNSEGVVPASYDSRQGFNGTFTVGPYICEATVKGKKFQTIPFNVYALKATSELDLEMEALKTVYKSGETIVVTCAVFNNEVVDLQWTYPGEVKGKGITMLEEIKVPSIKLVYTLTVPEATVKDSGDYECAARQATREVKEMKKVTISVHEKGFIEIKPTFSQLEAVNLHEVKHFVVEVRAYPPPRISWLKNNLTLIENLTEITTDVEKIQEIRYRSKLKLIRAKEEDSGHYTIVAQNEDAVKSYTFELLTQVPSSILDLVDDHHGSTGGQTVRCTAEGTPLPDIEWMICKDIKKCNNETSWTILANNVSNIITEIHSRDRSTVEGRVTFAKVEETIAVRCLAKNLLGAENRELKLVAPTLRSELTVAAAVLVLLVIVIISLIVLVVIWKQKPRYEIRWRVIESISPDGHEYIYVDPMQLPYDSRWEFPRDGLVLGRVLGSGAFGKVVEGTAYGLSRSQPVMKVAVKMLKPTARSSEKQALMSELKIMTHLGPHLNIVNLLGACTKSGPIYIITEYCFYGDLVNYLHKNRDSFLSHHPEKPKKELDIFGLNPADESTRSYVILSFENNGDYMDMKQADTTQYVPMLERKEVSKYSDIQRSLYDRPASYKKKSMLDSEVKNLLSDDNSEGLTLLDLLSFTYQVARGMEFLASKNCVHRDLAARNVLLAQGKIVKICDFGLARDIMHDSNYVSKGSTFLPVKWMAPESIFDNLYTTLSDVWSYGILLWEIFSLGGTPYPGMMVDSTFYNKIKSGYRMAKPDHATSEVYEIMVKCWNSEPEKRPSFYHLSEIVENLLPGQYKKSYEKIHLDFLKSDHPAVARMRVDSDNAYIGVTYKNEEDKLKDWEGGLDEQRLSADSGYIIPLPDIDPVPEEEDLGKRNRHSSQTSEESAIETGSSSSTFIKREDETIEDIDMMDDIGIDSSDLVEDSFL
# Chain of KDR (P35968 20-1356): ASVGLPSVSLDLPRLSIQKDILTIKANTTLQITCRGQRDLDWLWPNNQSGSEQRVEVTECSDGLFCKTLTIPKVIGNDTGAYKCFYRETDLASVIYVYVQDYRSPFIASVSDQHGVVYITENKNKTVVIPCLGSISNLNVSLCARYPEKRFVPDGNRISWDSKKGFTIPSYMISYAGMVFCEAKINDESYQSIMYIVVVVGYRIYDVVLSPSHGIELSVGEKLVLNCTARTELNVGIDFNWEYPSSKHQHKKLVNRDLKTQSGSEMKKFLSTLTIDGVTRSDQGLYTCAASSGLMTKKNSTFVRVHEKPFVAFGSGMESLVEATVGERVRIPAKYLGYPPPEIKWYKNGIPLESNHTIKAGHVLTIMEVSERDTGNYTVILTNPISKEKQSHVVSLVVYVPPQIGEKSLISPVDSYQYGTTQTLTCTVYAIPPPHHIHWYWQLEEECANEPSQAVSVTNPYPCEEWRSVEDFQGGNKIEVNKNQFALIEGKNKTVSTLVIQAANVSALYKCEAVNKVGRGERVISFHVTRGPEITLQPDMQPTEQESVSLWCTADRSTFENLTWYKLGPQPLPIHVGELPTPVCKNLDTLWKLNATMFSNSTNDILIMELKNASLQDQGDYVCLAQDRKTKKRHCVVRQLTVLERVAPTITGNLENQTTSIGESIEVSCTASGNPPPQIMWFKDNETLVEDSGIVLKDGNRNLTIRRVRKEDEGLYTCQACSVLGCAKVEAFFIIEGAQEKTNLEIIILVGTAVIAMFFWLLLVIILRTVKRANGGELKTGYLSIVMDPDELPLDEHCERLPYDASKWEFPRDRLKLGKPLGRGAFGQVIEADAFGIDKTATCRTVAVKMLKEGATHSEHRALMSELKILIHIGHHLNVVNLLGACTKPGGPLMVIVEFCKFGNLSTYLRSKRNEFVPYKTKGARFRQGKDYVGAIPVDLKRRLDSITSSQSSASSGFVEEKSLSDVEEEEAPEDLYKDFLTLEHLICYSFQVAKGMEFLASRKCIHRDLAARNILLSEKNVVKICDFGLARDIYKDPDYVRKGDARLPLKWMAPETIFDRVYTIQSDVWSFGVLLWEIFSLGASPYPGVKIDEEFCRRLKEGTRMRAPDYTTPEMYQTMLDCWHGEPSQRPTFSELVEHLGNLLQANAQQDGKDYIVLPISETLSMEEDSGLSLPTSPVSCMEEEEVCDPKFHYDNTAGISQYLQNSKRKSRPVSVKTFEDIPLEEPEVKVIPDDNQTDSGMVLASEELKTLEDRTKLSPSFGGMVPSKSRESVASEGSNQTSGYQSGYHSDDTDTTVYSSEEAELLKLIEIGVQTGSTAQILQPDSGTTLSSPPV
# Chain of CKIT (Homo sapiens, UniProt P10721) (P10721 26-976): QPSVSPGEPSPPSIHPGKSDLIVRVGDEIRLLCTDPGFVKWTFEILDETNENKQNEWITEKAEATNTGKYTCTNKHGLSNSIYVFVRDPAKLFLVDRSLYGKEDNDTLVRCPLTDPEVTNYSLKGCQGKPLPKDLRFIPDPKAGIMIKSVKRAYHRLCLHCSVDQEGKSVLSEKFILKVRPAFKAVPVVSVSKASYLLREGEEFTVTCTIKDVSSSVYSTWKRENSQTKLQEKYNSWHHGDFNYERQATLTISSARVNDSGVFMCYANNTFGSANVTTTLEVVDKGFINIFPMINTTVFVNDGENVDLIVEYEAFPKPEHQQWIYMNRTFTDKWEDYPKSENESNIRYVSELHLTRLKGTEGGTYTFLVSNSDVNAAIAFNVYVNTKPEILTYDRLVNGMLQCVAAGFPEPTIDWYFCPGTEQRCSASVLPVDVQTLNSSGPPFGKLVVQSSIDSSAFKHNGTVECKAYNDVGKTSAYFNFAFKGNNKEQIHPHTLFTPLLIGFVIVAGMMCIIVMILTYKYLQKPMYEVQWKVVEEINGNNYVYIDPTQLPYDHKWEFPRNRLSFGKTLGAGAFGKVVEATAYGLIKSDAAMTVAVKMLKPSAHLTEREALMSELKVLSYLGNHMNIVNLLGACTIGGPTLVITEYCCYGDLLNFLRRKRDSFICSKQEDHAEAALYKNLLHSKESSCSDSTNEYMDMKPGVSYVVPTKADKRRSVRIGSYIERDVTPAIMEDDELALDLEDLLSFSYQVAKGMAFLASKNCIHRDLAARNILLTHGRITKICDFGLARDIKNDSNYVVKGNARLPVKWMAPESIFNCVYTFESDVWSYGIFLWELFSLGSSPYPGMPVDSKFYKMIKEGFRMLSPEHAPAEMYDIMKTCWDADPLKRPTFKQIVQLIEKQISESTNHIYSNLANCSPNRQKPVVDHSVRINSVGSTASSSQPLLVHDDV
# Chain of CKIT D816V (P10721 26-976 D816V): as the sequence (P10721 26-976) above, with D791V counted along it
"IC50 ([1]; reversible reference compounds, read-out: IC50 FLT3)","IC50 ([2]; reversible reference compounds, read-out: IC50 PDGFRA)","IC50 ([3]; reversible reference compounds, read-out: IC50 KDR)",IC50 [4],"IC50 [1, 7]","IC50 [3, 8]","IC50 [2, 9]",Compound,IC50 [5],duration of c-KIT inhibition after washout [6]
0.461 nM,4.15 nM,39.4 nM,16.3 nM,,,,"CCC(=O)Nc1ccc(NC(=O)Nc2ccc(Oc3ccnc(C(=O)NC)c3)cc2)cc1C(F)(F)F [Reversible Reference Compound 3, 4-(4-(3-(4-(Propionamido)-3-(trifluoromethyl)phenyl)ureido)phenoxy)-N-methylpicolinamide, reference compound]",,
,,,,0.508 nM,0.95 nM,0.508 nM,"CNC(=O)c1cc(Oc2ccc(NC(=O)Nc3ccc(NC(=O)CCl)c(C(F)(F)F)c3)cc2)ccn1 [XVIII-13, 4-(4-(3-(4-(2-Chloroacetamido)-3-(trifluoromethyl)phenyl)ureido)phenoxy)-N-methylpicolinamide]",,
,,,,107 nM,6.94 nM,1.54 nM,"CNC(=O)c1cc(Oc2ccc(NC(=O)Nc3ccc(NC(=O)C(C)Cl)c(C(F)(F)F)c3)cc2)ccn1 (centres unmarked) [XVIII-14, 4-(4-(3-(4-(2-Chloropropionamido)-3-(trifluoromethyl)phenyl)ureido)phenoxy)-N-methylpicolinamide]",,

Compound,"IC50 ([1]; reversible reference compounds, read-out: IC50 FLT3)","IC50 ([2]; reversible reference compounds, read-out: IC50 PDGFRA)","IC50 ([3]; reversible reference compounds, read-out: IC50 KDR)",IC50 [4],"IC50 [1, 7]","IC50 [3, 8]","IC50 [2, 9]",IC50 [5],duration of c-KIT inhibition after washout [6]
"C=CC(=O)Nc1ccc(NC(=O)Nc2ccc(Oc3ccnc(C(=O)NC)c3)cc2)cc1C(F)(F)F [XVIII-11, 4-(4-(3-(4-Acrylamido-3-(trifluoromethyl)phenyl)ureido)phenoxy)-N-methylpicolinamide]",,,,,1.99 nM,26.9 nM,,3.42 nM,at least 8 hours
